{"source": "paper PMC8619046", "about": "“ABCB1 and ABCG2 Control Brain Accumulation and Intestinal Disposition of the Novel ROS1/TRK/ALK Inhibitor Repotrectinib, While OATP1A/1B, ABCG2, and CYP3A Limit Its Oral Availability” (Pharmaceutics, 2021)", "test": "8-h oral plasma pharmacokinetics and tissue distribution, female wild-type, Cyp3a−/− and Cyp3aXAV mice", "type": "in vivo", "settings": "10 mg/kg oral; for Tmax: median (range); for Tmax / SIC (% of dose) / Fold change AUC0–8h / Fold change SIC (% of dose) / Fold increase Cbrain / Fold increase Cliver / Fold increase ratio (brain-to-plasma) / Fold increase ratio (liver-to-plasma) / Kp at 8 h / concentration at 8 h / half-life / Cmax / AUC(0-t): 8 h; for Fold change AUC0–8h / Fold change SIC (% of dose) / Fold increase Cbrain / Fold increase Cliver / Fold increase ratio (brain-to-plasma) / Fold increase ratio (liver-to-plasma): vs wild-type; for Kp at 8 h / concentration at 8 h / half-life / Cmax / AUC(0-t): female, po; for half-life: elimination half-life; for AUC(0-t): read-out: AUC0–8h", "description": "Mice with similar average ages (and body weights) were randomly allocated in experimental groups as far as possible. Mice were maintained in a temperature-controlled and specific pathogen-free environment with a 12-h light and 12-h dark cycle and they received a standard diet (Transbreed, SDS Diets, Technilab-BMI, Someren, The Netherlands) and acidified water ad libitum. […] Given the objective main readout (repotrectinib plasma and tissue concentrations as measured by LC-MS/MS), no blinding method was applied.\nRepotrectinib was dissolved in dimethyl sulfoxide (DMSO) at a concentration of 50 mg/mL. This stock solution was first diluted 3-fold with ethanol/polysorbate 80 (1/1; v/v), followed by further dilution with a 10 mM hydrochloric acid solution, yielding a dosing solution of 1 mg/mL, freshly prepared on the day of experiment. Final concentrations of the solvents in the administration solution were: 2%, 2%, 2%, and 94% (all v/v) for DMSO, ethanol, polysorbate 80, and 10 mM hydrochloric acid solution, respectively.\nTo minimize variation in absorption upon oral administration, mice were fasted for 2–3 h before repotrectinib (10 mg/kg body weight) was administered by gavage into the stomach at 10 µL/g body weight, with a blunt-ended needle. Tail vein serial blood samples were collected at 0.125, 0.25, 0.5, 1, 2 and 4 h using heparinized capillary tubes (Sarstedt, Nümbrecht, Germany) for the 8-h experiments. For the 4- and 2-h experiments, blood samplings were performed from the tail vein with the same schedule, but terminated at 2 and 1 h, respectively. Eight, four, or two hours after oral administration, mice were deeply anesthetized with 2–3% isoflurane, followed by cardiac puncture to collect blood in Eppendorf tubes containing heparin as an anticoagulant. Brain, liver, spleen, kidney, lung, small intestine, and testis were rapidly collected after sacrificing the mice by cervical dislocation. The small intestinal contents (SIC) were separated from small intestinal tissue (SI), which was flushed and rinsed with cold saline to remove any residual feces. Brain, liver, spleen, kidney, lung, SI, SIC, and testis were homogenized with 1, 3, 1, 2, 1, 3, 2, and 1 mL of 2% BSA (w/v), respectively. Plasma fraction was isolated from blood by centrifugation at 9000× g for 6 min at 4 °C. All samples were stored at −30 °C until analysis.\nA sensitive and specific liquid chromatography-tandem mass spectrometry method using protein precipitation pre-treatment was adopted to quantify the concentration of repotrectinib in DMEM medium, plasma samples and tissue homogenates.\nA non-compartmental model using the PKSolver add-in program for Microsoft Excel was adopted to calculate the pharmacokinetic parameters of repotrectinib. Oral availability was assessed by the plasma area under the curve (AUC), calculated using repotrectinib plasma concentration-time curves with the linear trapezoidal rule without extrapolating the infinity. Statistical testing was performed in Graphpad Prism7 (Graphpad Software, La Jolla, CA, USA). All data are presented as geometric means ± SD. Heteroscedastic data were log-transformed before applying statistical analysis. When differences between two groups were compared, the two-sided unpaired Student’s t test was used. One-way analysis of variance (ANOVA) was applied when multiple groups were compared, and the Bonferroni post hoc correction was used to accommodate multiple testing. Differences were considered statistically significant when P < 0.05.", "key": {"[1]": {"settings": "FVB, mouse, plasma, 10 mg/kg, female Cyp3aXAV mice"}, "[2]": {"settings": "FVB, mouse, plasma, 10 mg/kg, female Cyp3a−/− mice"}, "[3]": {"settings": "FVB, mouse, plasma, 10 mg/kg, female wild-type mice"}}, "note": "Several values for one entry are separate records, joined by “and”; a condition that tells them apart may be missing. Equal values may be shown once. Read-outs that look alike come from different tables or passages of the source."}
{"smiles": "C[C@H]1CNC(=O)c2cnn3ccc(nc23)N[C@H](C)c2cc(F)ccc2O1", "note": "[repotrectinib]", "values": [{"measurement": "Tmax", "setting": "FVB, mouse, plasma, female wild-type mice, read-out: Tmax", "result": 0.5, "unit": "h"}, {"measurement": "plasma AUC0–8h, fold decrease", "setting": "female Cyp3aXAV mice compared to Cyp3a−/− mice", "result": 2.0, "unit": "fold"}, {"measurement": "SIC (% of dose)", "setting": "female Cyp3aXAV mice", "result": "1.68 ± 0.63 % of dose"}, {"measurement": "Fold change AUC0–8h", "setting": "female Cyp3aXAV mice", "result": 1.16}, {"measurement": "Fold change SIC (% of dose)", "setting": "female Cyp3aXAV mice", "result": 0.81}, {"measurement": "Fold increase Cbrain", "setting": "female Cyp3aXAV mice", "result": 1.57}, {"measurement": "Fold increase Cliver", "setting": "female Cyp3aXAV mice", "result": 1.13}, {"measurement": "Fold increase ratio (brain-to-plasma)", "setting": "female Cyp3aXAV mice", "result": 1.54}, {"measurement": "Fold increase ratio (liver-to-plasma)", "setting": "female Cyp3aXAV mice", "result": 1.32}, {"measurement": "SIC (% of dose)", "setting": "female Cyp3a−/− mice", "result": "5.11 ± 2.83 % of dose"}, {"measurement": "Fold change SIC (% of dose)", "setting": "female Cyp3a−/− mice", "result": 2.46}, {"measurement": "Fold increase Cbrain", "setting": "female Cyp3a−/− mice", "result": 4.16}, {"measurement": "Fold increase Cliver", "setting": "female Cyp3a−/− mice", "result": 4.11}, {"measurement": "Fold increase ratio (brain-to-plasma)", "setting": "female Cyp3a−/− mice", "result": 0.85}, {"measurement": "Fold increase ratio (liver-to-plasma)", "setting": "female Cyp3a−/− mice", "result": 0.90}, {"measurement": "Fold change AUC0–8h", "setting": "female Cyp3a−/− mice, 10 mg/kg", "result": "2.3 and 2.31"}, {"measurement": "SIC (% of dose)", "setting": "female wild-type mice", "result": "2.08 ± 1.35 % of dose"}, {"measurement": "Fold change AUC0–8h", "setting": "female wild-type mice", "result": 1.00}, {"measurement": "Fold change SIC (% of dose)", "setting": "female wild-type mice", "result": 1.00}, {"measurement": "Fold increase Cbrain", "setting": "female wild-type mice", "result": 1.00}, {"measurement": "Fold increase Cliver", "setting": "female wild-type mice", "result": 1.00}, {"measurement": "Fold increase ratio (brain-to-plasma)", "setting": "female wild-type mice", "result": 1.00}, {"measurement": "Fold increase ratio (liver-to-plasma)", "setting": "female wild-type mice", "result": 1.00}, {"measurement": "Kp at 8 h", "setting": "Cyp3aXAV (>99% FVB background), mouse, brain/plasma, 10 mg/kg, female Cyp3aXAV mice, read-out: Brain-to-plasma ratio", "result": "0.4 ± 0.09"}, {"measurement": "concentration at 8 h", "setting": "Cyp3aXAV (>99% FVB background), mouse, liver, 10 mg/kg, female Cyp3aXAV mice, read-out: Cliver", "result": "1.38 ± 0.44", "unit": "µg/mL"}, {"measurement": "Kp at 8 h", "setting": "Cyp3a−/− (>99% FVB background), mouse, brain/plasma, 10 mg/kg, female Cyp3a−/− mice, read-out: Brain-to-plasma ratio", "result": "0.22 ± 0.08"}, {"measurement": "concentration at 8 h", "setting": "Cyp3a−/− (>99% FVB background), mouse, liver, 10 mg/kg, female Cyp3a−/− mice, read-out: Cliver", "result": "5.02 ± 1.92", "unit": "µg/mL"}, {"measurement": "concentration at 8 h", "setting": "FVB, mouse, brain, 10 mg/kg, female Cyp3aXAV mice, read-out: Cbrain", "result": "80.2 ± 35.3", "unit": "ng/g"}, {"measurement": "concentration at 8 h", "setting": "FVB, mouse, brain, 10 mg/kg, female Cyp3a−/− mice, read-out: Cbrain", "result": "213 ± 53.7", "unit": "ng/g"}, {"measurement": "concentration at 8 h", "setting": "FVB, mouse, brain, 10 mg/kg, female wild-type mice, read-out: Cbrain", "result": "51.2 ± 17.8", "unit": "ng/g"}, {"measurement": "Kp at 8 h", "setting": "FVB, mouse, liver, 10 mg/kg, female Cyp3aXAV mice, read-out: Liver-to-plasma ratio", "result": "7.1 ± 2.11"}, {"measurement": "Kp at 8 h", "setting": "FVB, mouse, liver, 10 mg/kg, female Cyp3a−/− mice, read-out: Liver-to-plasma ratio", "result": "4.81 ± 0.76"}, {"measurement": "Kp at 8 h", "setting": "FVB, mouse, liver, 10 mg/kg, female wild-type mice, read-out: Liver-to-plasma ratio", "result": "5.36 ± 0.54"}, {"measurement": "half-life", "setting": "[1]", "result": "1.6 ± 0.2", "unit": "h"}, {"measurement": "half-life", "setting": "[2]", "result": "2.5 ± 0.9", "unit": "h"}, {"measurement": "half-life", "setting": "[3]", "result": "1.6 ± 0.4", "unit": "h"}, {"measurement": "Cmax", "setting": "[1]", "result": "5.56 ± 0.61", "unit": "µg/mL"}, {"measurement": "AUC(0-t)", "setting": "[1]", "result": "18.9 ± 3.65", "unit": "µg·h/mL"}, {"measurement": "Cmax", "setting": "[2]", "result": "8.28 ± 0.93", "unit": "µg/mL"}, {"measurement": "AUC(0-t)", "setting": "[2]", "result": "37.6 ± 2.83", "unit": "µg·h/mL"}, {"measurement": "Cmax", "setting": "[3]", "result": "4.8 ± 1.78", "unit": "µg/mL"}, {"measurement": "AUC(0-t)", "setting": "[3]", "result": "16.3 ± 6.35", "unit": "µg·h/mL"}, {"measurement": "Kp at 8 h", "setting": "wild-type (>99% FVB background), mouse, brain/plasma, 10 mg/kg, female wild-type mice, read-out: Brain-to-plasma ratio", "result": "0.26 ± 0.12"}, {"measurement": "concentration at 8 h", "setting": "wild-type (>99% FVB background), mouse, liver, 10 mg/kg, female wild-type mice, read-out: Cliver", "result": "1.22 ± 0.65", "unit": "µg/mL"}, {"measurement": "Tmax", "setting": "female Cyp3aXAV mice", "result": "0.5 (0.25–0.5) h"}, {"measurement": "Tmax", "setting": "female Cyp3a−/− mice", "result": "0.5 (0.125–0.5) h"}]}
